# Experimental data: a melting point compilation (Tetko et al.; mined from patent text by program, amines drawn as free bases though some values may be those of a salt)
row,SMILES,melting point
1,O=C(O)c1ccccc1N1C(=O)c2ccc([N+](=O)[O-])cc2C1=O,242 to 243 °C
2,CCOC(=O)NNC(=O)NCCC(=O)OC,105 to 107 °C
3,CCOP(=O)(Cc1nnc2c(=O)[nH]c3cc(C(F)(F)F)c([N+](=O)[O-])cc3n12)OCC,222 to 228 °C
4,CC(=O)Nc1nnc2c3c(c(N4CCCCC4)nn12)CCCC3,214 to 216 °C
5,CCn1cc(C(=O)O)c(=O)c2cc(F)c(N3CCN(S(=O)(=O)c4ccc(NC(C)=O)cc4)CC3)c(F)c21,276 to 277 °C
6,COC(=O)c1cccc(CNC(=O)OC(C)(C)C)c1O,95 to 96 °C
7,COc1cccc(NC(=O)NCc2nnc(C)n2-c2sc(C(=O)O)cc2C(=O)c2ccccc2Cl)c1,206 to 208 °C
8,CCCSc1ncc(CCCC(=O)O)n1Cc1ccccc1Cl,98 to 99 °C
9,O=c1c2ccccc2sn1SCc1ccccc1,111 to 112 °C
10,Cc1cc(C2(C(F)(F)F)CC(C#N)=C(c3ccccc3)O2)ccc1NC(=O)OC(C)(C)C (stereo not given),46 to 49 °C
11,CCn1c(=O)c(C#N)c(N)c2ccc(C)nc21,> 300 °C
12,O=c1[nH]c2cc(Cl)ccc2c(O)c1-c1ccccc1F,> 350 °C
13,CN1CCC(OC2c3ccccc3CCn3c2nc(-c2ccc(Br)cc2)c3Cl)CC1 (stereo not given),169 °C
14,Cc1nc2[nH]c(=O)[nH]c2cc1-c1ccc(N)cc1,277 to 283 °C
15,O=C(O)CC1CCCc2cc(S(=O)(=O)c3ccccc3)ccc21 (stereo not given),144 °C
16,CCCCOc1ccc(Nc2cc(Nc3ccc4c(c3)OCCO4)c(F)cn2)cc1,133 to 135 °C
17,N#CC(c1cccnc1)C1CCN(C(=O)CC(NC(=O)c2cccc(OCc3ccc4ccccc4n3)c2)c2ccccc2)CC1 (stereo not given),91 to 97 °C
18,Cc1ccc(S(=O)(=O)C2=CC3C=CC2N3C(=O)OC(C)(C)C)cc1 (stereo not given),94 to 99 °C
19,Cc1cc(F)cc2[nH]c(=O)c(=O)[nH]c12,> 300 °C
20,CCOC(=O)c1ccc(NC(=O)c2ccc(OCCCCc3ccccc3)cc2)c(O)c1,156 to 158 °C
21,Cc1csc2c(CSc3nc4ccccc4[nH]3)nccc12,160 to 162 °C
22,Cc1ccc(-c2nc3ccc(CN4CCN(C)CC4)cc3[nH]2)cc1C#Cc1cnc2cccnn12,114 to 115 °C
23,CC1Sc2c(C(=O)O)c(=O)c3cc(F)c(N4CCN(C)CC4)c(F)c3n21 (stereo not given),238 °C
24,CC(C)(C#N)c1cc(CCl)cc(C(C)(C)C#N)c1,119 to 121 °C
25,NC(=O)C1=CCCc2cc(Sc3cccc(F)c3)ccc21,168 to 170 °C

row,SMILES,melting point
1,CCCCc1ccc(-c2nc3ccccc3[nH]2)nc1,138 to 139 °C
2,COCCOc1ncc(Br)nc1-c1ccc(Cl)cc1,79 to 80 °C
3,Nc1ccc(C(=O)N2Cc3ccccc3CC3=C2C=CC(Cl)C3)cc1 (stereo not given),211 to 214 °C
4,COc1ccc(N2CCN(NC(=S)NCC(OC)OC)CC2)cc1,157 °C
5,COc1nc(C2CC2)nc(OC(C)C)c1C=O,46 to 47 °C
6,O=C(O)c1ncsc1-c1cc(F)cc(F)c1,200 °C
7,CCC(=N)NC(=O)Nc1ccc(Cl)cc1,191 to 192 °C
8,CCCCOC(=O)NCc1nc(-c2ccc3c(c2)Nc2ccccc2S3)cs1,186 to 188 °C
9,CC(O)c1ccnc(C(=O)c2[nH]c3cc(Cl)ccc3c2CC(=O)O)c1 (stereo not given),193 to 194 °C
10,CCOC(=O)C1=C(C)NC(c2nccn2C)=NC1c1ccc(F)cc1 (stereo not given),134 to 136 °C
11,NNC(=S)NCC1CC(c2ccc(Cl)cc2)=NO1 (stereo not given),115 to 117 °C
12,Cc1csc2nc(=O)n(C)c(-c3ccccc3F)c12,176 to 178 °C
13,CCOC(=O)c1cc2cc(NC(=O)C[C@H]3O[C@H](c4cccc(OC)c4OC)c4cc(Cl)ccc4N(CC(C)(C)COC(C)=O)C3=O)ccc2[nH]1,200 to 201 °C
14,CC(C)C[C@@H](CO)NC(=O)[C@H](Cc1c[nH]cn1)NC(=O)C(CNCCCc1ccccc1)Cc1cccc2ccccc12 (stereo not given in full),72 to 76 °C
15,CCOC(=O)CCN(c1ccccc1)S(=O)(=O)c1ccc2c(c1)nc(CNc1ccc(C#N)cc1)n2C,188 to 191 °C
16,Cc1ccccc1NC(C#N)c1c(Cl)cccc1Cl (stereo not given),108 °C
17,O=C(NCc1ccc(Cl)cc1)c1cnc2c(CNCc3ccccc3)cc(CN3CCOCC3)cc2c1O,214 to 216 °C
18,CC1(C)OC(=O)c2c(cccc2OS(=O)(=O)C(F)(F)F)O1,115 °C
19,CC(C)C(=O)NC1=NC(=CCC(=O)Nc2ccc(Cl)cc2)CS1,112 to 114 °C
20,C=CCc1oc2c(OC)cccc2c1CC(=O)OC,65 to 66 °C
21,COc1cc2c(cc1O)C(C)(C)CC2=O,105 to 107 °C
22,NC(=O)c1ccc(Cl)c(Br)c1,146 to 147 °C
23,N#Cc1ccc2c(c1)N(C1CC1)C=NS2(=O)=O,273 to 276 °C
24,ClC(Cl)(Cl)C1OCc2ccccc2O1 (stereo not given),167 to 169 °C
25,CS(=O)(=O)c1ccc(-n2cnc(Cl)c2-c2ccccc2)cc1,145 to 146 °C

row,SMILES,melting point
1,Fc1ccc(-c2cc3ncnc(Nc4ccc5[nH]ccc5c4)c3s2)cc1Cl,175 to 183 °C
2,Cc1cc(Br)cnc1CCCNc1ncc(Cc2cccnc2)cc1[N+](=O)[O-],105 to 106 °C
3,Clc1ccccc1-c1nc(-c2ccccn2)no1,93 to 94 °C
4,O=C(c1ccc(-c2ccccc2)cc1)N1Cc2ccc(C(=O)C(Cl)(Cl)Cl)n2Cc2ccccc21,197 to 198 °C
5,CCC1(C)Cc2ccc(C(C)C(=O)O)cc2C1 (stereo not given),165 to 167 °C
6,O=C(O)COC(=O)c1ccccc1O,131 to 132 °C
7,O=S1(=O)N=C(O)C(c2ccccc2)=N1,202 to 204 °C
8,COC(=O)c1cccnc1C(=O)c1ccccc1,74 °C
9,CCN1C(=O)CC(C(=O)O)C1c1c(Cl)cccc1Cl (stereo not given),195 to 197 °C
10,CCOC(=O)c1cccc(C=Cc2ccccc2)c1,82 °C
11,COc1cn(-c2ccc(-n3cccn3)cc2F)nc(-c2ccnn2-c2cccc(Cl)c2)c1=O,186 to 190 °C
12,O=[N+]([O-])c1ccc2c(c1)OC(C1(CCCCCl)OCCO1)CO2 (stereo not given),74 to 76 °C
13,C[C@@H](N1CCN(c2ccc(-n3cnn(Cc4ccc(C(F)(F)F)cc4C(F)(F)F)c3=O)cc2)CC1)[C@](O)(Cn1cncn1)c1ccc(F)cc1F,146 to 148 °C
14,CCCCCCCCCCCCCCCCCCOc1cc(OCCOc2ccc3ccccc3c2)cc(C(=O)O)c1,93 to 94 °C
15,CN1CCSC1=NC(=O)CCC(=O)N=C1SCCN1C,181 to 183 °C
16,CCCOc1cc(C)ccc1-c1nc(N)c(N=O)c(=O)[nH]1,214 to 216 °C
17,CC(C)(C)OC(=O)N[C@H](Cc1ccc(C(F)(F)F)cc1)[C@@H](O)c1ccc(Cl)nc1 (racemic),157 to 158 °C
18,CC(=O)OCc1cc(Cl)ccc1Sc1ccccc1CN(C)C,41 to 44 °C
19,CN(C)CC(c1ccc(OC(=O)c2ccccc2)cc1)C1(OC(=O)c2ccccc2)CCCCC1 (stereo not given),128 to 130 °C
20,N#CCCCC#Cc1cc(F)c2ncc(C(=O)NCc3ccc(Cl)cc3)c(O)c2c1,208 to 210 °C
21,Nc1nc(N)c2cc(Cc3ccc(F)cc3)ccc2n1,214 to 216 °C
22,CN(C)C(N)=Nc1cc(S(C)=O)ccc1N1CCOCC1 (stereo not given),160 to 161 °C
23,COc1cc(C(=O)N(C(C)C)C2CCCCC2)ccc1CN(C(=O)CCl)c1cccnc1O,127 to 129 °C
24,NCc1cc(Cl)ccc1OCC(N)=O,135 to 137 °C
25,COc1ccc(NC(=N)c2ccccn2)cc1,73 to 75 °C

row,SMILES,melting point
1,CC(C)CN(C)c1ccccc1CS(=O)c1nc2ncccc2[nH]1 (stereo not given),116 to 118 °C
2,CCC(CC)(OCc1oc(-c2ccc(Cl)cc2)nc1C)C(=O)O,157 °C
3,COc1cc(C)c(C(=O)CCCCCCCCCCCCCCCCCCCCC(=O)O)c(O)c1OC,103 to 150 °C
4,O=C1Nc2cc(F)ccc2C1c1ncnc2nn(C3CCCCC3)cc12 (stereo not given),297 to 300 °C
5,CCCCCCC(C)Oc1ccc(-c2ccc(C(C)=O)cc2)cc1F (stereo not given),67.6 to 68.5 °C
6,Cc1cc(C)c2nc(C)c(C(=O)O)c(-c3ccccc3Cl)c2c1,278 to 279 °C
7,O=C1C(=O)N(Cc2ccc(Nc3ncccn3)cc2)CCN1Cc1ccc(Nc2ncccn2)cc1,226 to 228 °C
8,CCCOC1(C)CN(C(=O)Nc2ccc(C(F)(F)F)cc2)N=C1c1ccc(Cl)cc1 (stereo not given),135 to 138 °C
9,O=C1CC2(CN1)CC(=O)c1cc(Cl)cc(Cl)c12 (stereo not given),226 to 228 °C
10,CC(C)(C)[C@H]1CC[C@@H](Nc2ncnc(I)c2Cl)CC1,89 to 90 °C
11,Cn1nc(-c2ccc(N)c([N+](=O)[O-])c2)c2ccccc21,231 °C
12,Cc1ccc(-c2nn(C(C)(C)C(=O)N(C)C)cc2C)c(Cl)c1,126 to 128 °C
13,CC(C#Cc1cc2ccccc2s1)N(O)C(N)=O (stereo not given),168 to 169 °C
14,Cc1ccc2c(c1)N(CC(=O)c1ccccc1C)C(=O)C(NC(=O)Nc1cccc(C(=O)O)c1)CN2C(=O)CC(C)C (stereo not given),202 to 205 °C
15,COCCOc1ccc(/C=C/C(=O)O)c(OCC2CCCCC2)c1,112 °C
16,CCOC(=O)c1cc(C=O)[nH]n1,133 to 134 °C
17,CC(=O)Oc1ccc(-c2ccc3oc(C(=O)O)cc3c2)cc1,251 to 254 °C
18,CCc1nc(OC)c(NC(=O)N2CCN(c3cc(OC)cc(OC)c3)CC2)cc1C,115 to 116 °C
19,CC(C)(C)OC(=O)NCCCCNC(=O)COc1ccc(Cl)cc1Cl,107 °C
20,c1ccc2c(OC[C@H]3CCCN3c3ccnc4ncnn34)cccc2c1,74 to 75 °C
21,O=C(O)Cc1cc2c(c([N+](=O)[O-])c1)NC(C(F)(F)F)CC2 (stereo not given),177 to 178 °C
22,CCC(=O)Nc1ccc(Br)c(-n2nc(CC)n(Cc3ccc(-c4ccccc4S(=O)(=O)NC(=O)OC(C)(C)C)cc3F)c2=O)c1,146 to 148 °C
23,CC(C)(Nc1c(Cl)cccc1[N+](=O)[O-])C(=O)O,107 to 109 °C
24,O=C(CSc1ccncc1)C12CC3CC(CC(C3)C1)C2,114 to 115 °C
25,CC(C)(O)C(=O)c1ccc(C(O)c2ccc(C(=O)C3(O)CCCCC3)cc2)cc1 (stereo not given),115 to 118 °C
